Data on two molecules can be found in ChEMBL document CHEMBL4425081, “Design and Development of Microsomal Prostaglandin E2 Synthase-1 Inhibitors: Challenges and Future Directions” (J Med Chem, 2016).

SMILES strings stand for the structures.

The target in test [1] is T1, Arachidonate 5-lipoxygenase-activating protein (Homo sapiens, UniProt P20292).
T1 sequence (P20292 whole entry): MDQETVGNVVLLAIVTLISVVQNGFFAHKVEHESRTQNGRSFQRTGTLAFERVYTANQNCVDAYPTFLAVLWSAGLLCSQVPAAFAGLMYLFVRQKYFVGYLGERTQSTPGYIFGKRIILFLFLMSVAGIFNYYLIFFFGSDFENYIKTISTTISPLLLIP
The experiment in a line: Antagonist activity at FLAP in human PMNC assessed as inhibition of A23187-induced LTB4 biosynthesis pre-incubated for 2 mins followed by addition of A23187 measured after 5 mins by radioimmunoassay.

Test [2] concerns the target T2, Prostaglandin G/H synthase 1 (Ovis aries, UniProt P05979).
T2 sequence (P05979 whole entry): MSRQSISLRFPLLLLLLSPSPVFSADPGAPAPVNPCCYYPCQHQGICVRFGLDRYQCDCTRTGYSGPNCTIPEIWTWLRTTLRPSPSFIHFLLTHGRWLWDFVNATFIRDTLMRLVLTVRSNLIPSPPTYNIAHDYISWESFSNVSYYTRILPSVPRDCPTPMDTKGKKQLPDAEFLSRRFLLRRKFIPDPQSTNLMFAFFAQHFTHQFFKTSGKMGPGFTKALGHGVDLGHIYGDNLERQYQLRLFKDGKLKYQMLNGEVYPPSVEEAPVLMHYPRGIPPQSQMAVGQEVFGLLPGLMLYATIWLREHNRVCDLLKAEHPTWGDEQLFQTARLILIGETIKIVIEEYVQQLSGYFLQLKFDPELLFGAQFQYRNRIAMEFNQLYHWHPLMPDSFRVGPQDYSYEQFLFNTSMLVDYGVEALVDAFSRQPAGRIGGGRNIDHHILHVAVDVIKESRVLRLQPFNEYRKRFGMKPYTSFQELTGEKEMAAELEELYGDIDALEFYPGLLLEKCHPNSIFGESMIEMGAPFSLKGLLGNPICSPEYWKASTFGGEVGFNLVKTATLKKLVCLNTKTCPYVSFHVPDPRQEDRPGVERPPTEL
The experiment in a line: Inhibition of ovine COX-1 assessed as 12-HHT formation preincubated for 5 mins followed by addition of arachidonic acid as substrate measured after 5 mins by HPLC analysis.

In test [3] the target is T3, Prostaglandin E synthase (Homo sapiens, UniProt O14684).
T3 sequence (O14684 whole entry): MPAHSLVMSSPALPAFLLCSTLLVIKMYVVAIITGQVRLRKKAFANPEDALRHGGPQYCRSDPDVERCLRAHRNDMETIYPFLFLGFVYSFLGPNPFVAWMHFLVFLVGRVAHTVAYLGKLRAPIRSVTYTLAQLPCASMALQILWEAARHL
The experiment in a line: Inhibition of human mPGES-1 expressed in CHO-K1 cells using PGH2 as substrate assessed as PGE2 formation preincubated for 20 mins followed by addition of substrate measured after 60 secs by HTRF assay. It is filed as cell-based.

Test [4] deals with T3, Prostaglandin E synthase. The experiment in a line: Inhibition of mPGES-1 in human A549 cells assessed as PGE2[…] formation preincubated for 60 mins prior to IL-beta stimulation measured after 24 hrs by EIA. It is filed as cell-based.

`CC(C)c1ccc2c(c1)c(SC(C)(C)C)c(CC(C)(C)C(=O)O)n2Cc1ccc(Cl)cc1`: the IC50 was 2.5 nM in test [1] and 8000 nM in test [2].

Consider `Cn1c(Nc2cc(CNC(=O)C3(C(F)(F)F)CC3)ccc2Cl)nc2cc(C(=O)NCC3CC3)c(OCC(F)F)cc21`, for which the IC50 at Prostaglandin E synthase [3] came to 0.1 nM; on Prostaglandin E synthase [4], 1.2 nM.
